US11166924B2, “N-methyl-d-aspartate receptor allosteric modulators and methods for their use” (Qingdao Primedicine Pharmaceutical Company, Ltd., priority 2016, dated 2021)
pEC50: −log10 of the molar value.

Target: T1, GluN1/GluN2A NMDARs (Rattus norvegicus, UniProt P35439+Q00959)
T1 construct: expressed in transfected cells; host or cells: HEK293
Experiment: Whole-cell patch clamp recordings in HEK293 cells transfected with GluN1/GluN2A
Assay type: cell-based
Details: Table 1; positive modulation of GluN1/GluN2A NMDARs; concentration not given
Method: Cells were transfected with a combination of pcDNA3-CMV expression vectors, each of which expressed one of the rat recombinant (GluN2AWT, GluN1WT, GluN2BWT) subunits. The sequences of all plasmids were confirmed by automated DNA sequencing. Human Embryonic Kidney 293 (HEK293 cells) were cultured in Dulbecco's Modified Eagle's Medium (DMEM) (Invitrogen) supplemented with 10% fetal bovine serum (FBS). When HEK293 cells achieved 90% confluence, plasmids of either GluN1 & GluN2A or GluN1 & GluN2B were co-transfected into the cells using Lipofectamine 2000 (Invitrogen, 11668019) according to manufacturer's instructions. HEK293 cells were then maintained in the 37° C. incubator with […] and 5% CO2 for 48 hrs before being used in experiments. The transfection ratios for the NMDAR subunit combinations were all 1:1 (GluN1/GluN2A or GluN1/GluN2B).
Whole cell patch-clamp recordings were performed under voltage-clamp mode using an Axopatch 200B or 1D patch-clamp amplifier (Molecular Devices). Whole-cell currents were recorded at a holding potential of −60 mV unless indicated elsewhere, and signals were filtered at 2 kHz, digitized at 10 kHz (Digidata 1322A). Recording pipettes (3-5 MΩ) were filled with intracellular solution containing (mM): CsCl 140, HEPES 10, Mg-ATP 4, QX-314 5, pH 7.20; osmolarity, 290-295 mOsm. BAPTA (10 mM) was added in the intracellular solution (unless otherwise specified). The coverslips were continuously superfused with extracellular solution containing (mM): NaCl 140, KCl 5.4, HEPES 10, CaCl2 1.3, glucose 20, pH 7.4; osmolarity, 305-315 mOsm. NMDA-induced currents were applied by NMDA through perfusion fast-step (Warner Instruments). With perfusion fast-step system, NMDA application was achieved by using a two-square barrel glass tubing and depending on the age of the cultured neurons, CNQX (10 μM), TTX (0.5 μM) or BIC (10 μM) were added in the extracellular solution to minimize the activation of ionotropic glutamate receptors and voltage-gated sodium channels, respectively. All experiments were performed at room temperature. Recordings from at least six HEK293 cells/neurons were performed for all active compounds. Data were pooled among HEK293 cells or primary neurons and composite dose-response data were fitted by the equation Percentage Response=100×Relative Efficacy/[1+(EC50/Concentration)nH], where EC50 is the concentration of agonist that produces a half-maximal response, relative efficacy is the response at maximally effective concentration relative to the maximal response of glutamate, and nH is the Hill slope.
GluN1/GluN2A NMDAR subtypes are an attractive target for positive allosteric modulation. The present inventors employed in silico computational drug discovery methods to conduct a virtual screen of purchasable lead-like compounds from the ZINC database (Irwin, J., et al. Abstr Pap Am Chem Soc (2005) 230:U1009) and some synthetic compounds to identify potential GluN1/GluN2A-NMDAR modulators. The in silico methods included large-scale docking against the interstice interface of the GluN1/GluN2A heterodimer and consensus scoring to select compounds for empirical testing. Candidate compounds were further screened by using GluN1/GluN2A transiently transfected in human embryonic kidney (HEK293) cells and tested by whole-cell patch clamp recordings.
The inventors used transiently transfected HEK293 cells expressing either GluN1/GluN2A or GluN1/GluN2B NMDARs and tested by whole-cell voltage patch clamp recordings to see whether selected compounds were controlling the subtype selectivity profile of the drugs.
Whole-cell patch clamp recordings were performed to measure glutamate evoked currents with chloride-based pipette solutions at a holding potential of −60 mV.

T1 sequence (Q00959 23-1464, other chains not shown): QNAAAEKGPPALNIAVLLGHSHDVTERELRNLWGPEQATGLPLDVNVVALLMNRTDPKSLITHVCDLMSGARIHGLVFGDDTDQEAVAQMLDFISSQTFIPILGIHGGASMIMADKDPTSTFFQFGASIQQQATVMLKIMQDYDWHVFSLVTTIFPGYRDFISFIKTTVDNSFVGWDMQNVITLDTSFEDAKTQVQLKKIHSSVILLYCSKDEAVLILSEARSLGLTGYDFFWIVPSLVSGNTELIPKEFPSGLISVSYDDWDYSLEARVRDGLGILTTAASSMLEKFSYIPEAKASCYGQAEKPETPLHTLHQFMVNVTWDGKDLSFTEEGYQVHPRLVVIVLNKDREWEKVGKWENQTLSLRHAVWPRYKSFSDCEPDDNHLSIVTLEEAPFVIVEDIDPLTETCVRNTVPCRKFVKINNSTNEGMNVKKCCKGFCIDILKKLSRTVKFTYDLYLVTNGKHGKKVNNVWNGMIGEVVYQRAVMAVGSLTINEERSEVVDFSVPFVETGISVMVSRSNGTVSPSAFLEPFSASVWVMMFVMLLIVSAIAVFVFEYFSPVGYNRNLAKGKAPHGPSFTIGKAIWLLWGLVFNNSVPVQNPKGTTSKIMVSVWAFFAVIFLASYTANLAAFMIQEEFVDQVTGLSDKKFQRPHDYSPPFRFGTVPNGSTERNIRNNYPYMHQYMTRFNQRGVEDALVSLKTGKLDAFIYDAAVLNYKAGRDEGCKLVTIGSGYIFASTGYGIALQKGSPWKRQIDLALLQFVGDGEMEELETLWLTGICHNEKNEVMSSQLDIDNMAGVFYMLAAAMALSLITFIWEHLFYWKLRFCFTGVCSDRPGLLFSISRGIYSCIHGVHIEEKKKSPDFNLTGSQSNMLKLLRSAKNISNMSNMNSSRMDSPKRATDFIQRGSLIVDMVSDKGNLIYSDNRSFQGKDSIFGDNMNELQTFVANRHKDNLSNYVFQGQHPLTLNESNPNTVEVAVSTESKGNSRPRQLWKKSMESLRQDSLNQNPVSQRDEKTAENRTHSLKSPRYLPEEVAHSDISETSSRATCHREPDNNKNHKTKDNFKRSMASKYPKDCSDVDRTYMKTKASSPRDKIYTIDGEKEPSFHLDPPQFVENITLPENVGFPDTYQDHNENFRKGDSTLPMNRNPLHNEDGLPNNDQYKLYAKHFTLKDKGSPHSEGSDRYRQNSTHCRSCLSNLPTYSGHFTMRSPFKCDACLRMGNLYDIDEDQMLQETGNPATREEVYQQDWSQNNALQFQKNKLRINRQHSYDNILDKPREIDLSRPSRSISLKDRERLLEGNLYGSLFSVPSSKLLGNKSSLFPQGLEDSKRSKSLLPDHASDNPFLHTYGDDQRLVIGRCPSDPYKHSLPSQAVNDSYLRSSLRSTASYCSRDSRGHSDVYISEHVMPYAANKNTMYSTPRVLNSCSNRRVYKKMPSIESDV

Row | Normalized Potentiation [%] | Structure (SMILES)
1 | 97.62 ± 6.03 | C=CCc1cc(/C=N/NC(=O)c2ccccc2Br)c(O)c(OC)c1 [Npam03, (E)-N′-(5-allyl-2-hydroxy-3-methoxybenzylidene)-2-bromobenzohydrazide]
2 | 292.08 ± 44.70 | CCOc1cc(Br)c(Br)c(/C=N/NC(=O)c2ccccc2C)c1O [Npam04C, (E)-N′-(2,3-dibromo-5-ethoxy-6-hydroxybenzylidene)-2-methylbenzohydrazide]
3 | 196.54 ± 21.20 | COc1cc(Br)c(Br)c(/C=N/NC(=O)c2ccccc2Br)c1O [Npam05, (E)-2-bromo-N′-(2,3-dibromo-6-hydroxy-5-methoxybenzylidene)benzohydrazide]
4 | 201.19 ± 14.63 | CCOc1cc(Cl)c(Cl)c(/C=N/NC(=O)c2cncc(Br)c2)c1O [Npam06, (E)-5-bromo-N′-(2,3-dichloro-5-ethoxy-6-hydroxybenzylidene)nicotinohydrazide]
5 | 103.77 ± 11.00 | CCOc1cccc(/C=N/NC(=O)c2cccc(Cl)c2C)c1O [Npam07, (E)-3-chloro-N′-(3-ethoxy-2-hydroxybenzylidene)-2-methylbenzohydrazide]
6 | 362.76 ± 38.44 | CCOc1cc(Cl)c(Cl)c(/C=N/NC(=O)NC(=O)COc2c(C)ccc(C)c2C)c1O [Npam08, (E)-2-(2,3-dichloro-5-ethoxy-6-hydroxybenzylidene)-N-(2-(2,3,6-trimethylphenoxy)acetyl)hydrazinecarboxamide]
7 | 206.28 ± 33.62 | CCOc1cc(Br)c(Br)c(/C=N/NC(=O)c2cccc(Cl)c2C)c1O [Npam10, 3-chloro-N′-[(1E)-(2,3-dibromo-5-ethoxy-6-hydroxyphenyl)methylidene]-2-methylbenzohydrazide]
8 | 118.15 ± 35.54 | CCOc1cc(Br)c(Br)c(/C=N/NC(=O)c2ccccc2OC)c1O [Npam12, (E)-N′-(2,3-dibromo-5-ethoxy-6-hydroxybenzylidene)-2-methoxybenzohydrazide]
9 | 195.38 ± 40.11 | COc1cc(Br)c(Br)c(/C=N/NC(=O)c2ccc(Cl)cc2)c1O [Npam13, (E)-4-chloro-N′-(2,3-dibromo-6-hydroxy-5-methoxybenzylidene)benzohydrazide]
10 | 89.84 ± 27.86 | CCOc1cc(Br)cc(/C=N/NC(=O)c2cccc(C)c2C)c1O [Npam15, (E)-N′-(5-bromo-3-ethoxy-2-hydroxybenzylidene)-2,3-dimethylbenzohydrazide]
11 | 36.90 ± 5.62 | O=C(N/N=C/c1cccc(O)c1O)c1cccc(Br)c1 [Npam16, (E)-3-bromo-N′-(2,3-dihydroxybenzylidene)benzohydrazide]
12 | 130.54 ± 13.63 | CCOc1cc(Cl)c(Cl)c(/C=N/NC(=O)c2ccccc2C)c1O [Npam17, (E)-N′-(2,3-dichloro-5-ethoxy-6-hydroxybenzylidene)-2-methylbenzohydrazide]
13 | 213.58 ± 43.58 | CCOc1cc(Cl)cc(/C=N/NC(=O)c2ccccc2Br)c1O [Npam18, (E)-2-bromo-N′-(5-chloro-3-ethoxy-2-hydroxybenzylidene)benzohydrazide]
14 | 131.85 ± 23.20 | COc1cc(Cl)cc(/C=N/NC(=O)c2ccccc2Br)c1O [Npam20, (E)-2-bromo-N′-(5-chloro-2-hydroxy-3-methoxybenzylidene)benzohydrazide]
15 | 37.27 ± 4.64 | CCOc1cc(Br)cc(/C=N/NC(=O)c2ccccc2N)c1O [Npam21, (E)-2-amino-N′-(5-bromo-3-ethoxy-2-hydroxybenzylidene)benzohydrazide]
16 | 59.83 ± 7.55 | CCOc1cc(Br)cc(/C=N/NC(=O)c2ccc(F)cc2)c1O [Npam22, (E)-N′-(5-bromo-3-ethoxy-2-hydroxybenzylidene)-4-fluorobenzohydrazide]

Row | Normalized Potentiation [%] | Structure (SMILES)
17 | 87.00 ± 6.48 | CCOc1cc(Br)cc(/C=N/NC(=O)c2ccc3c(c2)OCCO3)c1O [Npam23, (E)-N′-(5-bromo-3-ethoxy-2-hydroxybenzylidene)-2,3-dihydrobenzo[b][1,4]dioxine-6-carbohydrazide]
18 | 61.57 ± 8.15 | CCOc1cc([N+](=O)[O-])cc(/C=N/NC(=O)c2cc(Cl)ccc2O)c1O [Npam24, (E)-5-chloro-N′-(3-ethoxy-2-hydroxy-5-nitrobenzylidene)-2-hydroxybenzohydrazide]
19 | −14.32 ± 2.20 | COc1cc(Br)cc(/C=N/NC(=O)c2ccc(NC(=O)c3ccc(C)cc3)cc2)c1O [Npam25, (E)-N-(4-(2-(5-bromo-2-hydroxy-3-methoxybenzylidene)hydrazinecarbonyl)phenyl)-4-methylbenzamide]
20 | 175.08 ± 14.42 | O=C(N/N=C/c1cc(Cl)cc(Cl)c1O)c1ccccc1Br [Npam26, (E)-2-bromo-N′-(3,5-dichloro-2-hydroxybenzylidene)benzohydrazide]
21 | −0.278 ± 5.62 | CCOc1cc(/C=N/NC(=O)c2ccccc2Br)cc(Br)c1O [Npam27, (E)-2-bromo-N′-(3-bromo-5-ethoxy-4-hydroxybenzylidene)benzohydrazide]
22 | 30.25 ± 2.87 | CCOc1cc(Br)cc(/C=N/NC(=O)c2ccncc2)c1O [Npam28, N′-[(1E)-(5-bromo-3-ethoxy-2-hydroxyphenyl)methylidene]pyridine-4-carbohydrazide]
23 | 120.68 ± 9.61 | COc1cc(Cl)cc(/C=N/NC(=O)c2ccccc2Br)c1O [Npam29, (E)-2-bromo-N′-(5-chloro-2-hydroxy-3-methoxybenzylidene)benzohydrazide]
24 | 15.11 ± 8.78 | CCOc1cccc(/C=N/NC(=O)c2ccccc2Br)c1O [Npam31, 2-bromo-N′-[(1E)-(3-ethoxy-2-hydroxyphenyl)methylidene]benzohydrazide]
25 | 374.58 ± 19.07 | CCOc1cc(Cl)c(Cl)c(/C=N/NC(=O)c2cccc(Br)c2)c1O [Npam32, (E)-3-bromo-N′-(2,3-dichloro-5-ethoxy-6-hydroxybenzylidene)benzohydrazide]
26 | −12.47 ± 2.06 | Cc1ccccc1C(=O)N/N=C/c1cccc(O)c1O [Npam34, (E)-N′-(2,3-dihydroxybenzylidene)-2-methylbenzohydrazide]
27 | 512.24 ± 28.67 | COc1cc(Br)c(Br)c(/C=N/NC(=O)c2ccc(C(C)(C)C)cc2)c1O [Npam35, (E)-4-(tert-butyl)-N′-(2,3-dibromo-6-hydroxy-5-methoxybenzylidene)benzohydrazide]
28 | 4.02 ± 4.79 | O=C(N/N=C/c1cccc(O)c1O)c1ccc(Cl)cc1Cl [Npam36, (E)-2,4-dichloro-N′-(2,3-dihydroxybenzylidene)benzohydrazide]
29 | 435.94 ± 156.01 | COc1cc(Br)c(Br)c(/C=N/NC(=O)c2cccc(F)c2)c1O [Npam37, (E)-N′-(2,3-dibromo-6-hydroxy-5-methoxybenzylidene)-3-fluorobenzohydrazide]
30 | 426.44 ± 87.65 | CCOc1cc(Br)cc(/C=N/NC(=O)c2cccc(Br)c2)c1O [Npam38, (E)-3-bromo-N′-(5-bromo-3-ethoxy-2-hydroxybenzylidene)benzohydrazide]
31 | 51.95 ± 11.29 | COc1cc(Br)c(Br)c(/C=N/NC(=O)c2cccnc2)c1O [Npam39, (E)-N′-(2,3-dibromo-6-hydroxy-5-methoxybenzylidene)nicotinohydrazide]
32 | 2.51 ± 3.79 | COc1cc(/C=N/NC(=O)c2ccccc2Br)c(Br)c(Br)c1O [Npam40, (E)-2-bromo-N′-(2,3-dibromo-4-hydroxy-5-methoxybenzylidene)benzohydrazide]

Same assay, conditions: Table 1; potentiation; read-out: EC50

Row | pEC50 | Structure (SMILES)
33 | 6.60 | CCOc1cc(Cl)c(Cl)c(/C=N/NC(=O)c2cccc(Br)c2)c1O [Npam32, (E)-3-bromo-N′-(2,3-dichloro-5-ethoxy-6-hydroxybenzylidene)benzohydrazide]
34 | 6.66 | COc1cc(Br)c(Br)c(/C=N/NC(=O)c2ccc(C(C)(C)C)cc2)c1O [Npam35, (E)-4-(tert-butyl)-N′-(2,3-dibromo-6-hydroxy-5-methoxybenzylidene)benzohydrazide]
35 | 6.72 | CCOc1cc(Br)cc(/C=N/NC(=O)c2cccc(Br)c2)c1O [Npam38, (E)-3-bromo-N′-(5-bromo-3-ethoxy-2-hydroxybenzylidene)benzohydrazide]
